{
  "source": "patent US6653258B1",
  "about": "(priority 1987, dated 2003)",
  "key": {"[1]": {"test_system": "foliar fungal diseases of plants", "assay_type": "in vivo", "set-up": "key to disease control grading, […] (VINE): 4: no disease; 3: trace −5% of disease on untreated plants; key to disease control grading, PUCCINIA RECONDITA (WHEAT) / disease control grading, VENTURIA INAEQUALIS (APPLE) / disease control grading, CERCOSPORA ARACHIDICOLA (PEANUT) / disease control grading, PH[…] (TOMATO) / disease control grading, P[…] (RICE): 4: no disease; 3: trace −5% of disease on untreated plants; 6-25% of disease on untreated plants; 1: 26-59% of disease on untreated plants; 60-100% of disease on untreated plants", "settings": "applied to soil (roots) and foliage one or two days before inoculation; for disease control grading, CERCOSPORA ARACHIDICOLA (PEANUT): Cercospora arachidicola on peanut; for disease control grading, P[…] (RICE): P[…] on rice; for disease control grading, PH[…] (TOMATO): Ph[…] on tomato; for disease control grading, PUCCINIA RECONDITA (WHEAT): Puccinia recondita on wheat; for disease control grading, VENTURIA INAEQUALIS (APPLE): Venturia inaequalis on apple; for disease control grading, […] (VINE): […] on vine"}, "[2]": {"test_system": "Erysiphe graminis", "experiment": "Foliar fungal disease test on Erysiphe graminis, plants inoculated 24 hours before treatment (Table V)", "assay_type": "in vivo", "set-up": "key: 4: no disease; 3: trace −5% of disease on untreated plants; 6-25% of disease on untreated plants; 1: 26-59% of disease on untreated plants; 60-100% of disease on untreated plants", "settings": "plants inoculated 24 hours before treatment"}},
  "data": [
    {"smiles": "CO/C=C(/C(=O)OC)c1ccccc1COc1cccc(OC)c1", "note": "[160 (Table I)]", "values": [
      {"measurement": "disease control grading, CERCOSPORA ARACHIDICOLA (PEANUT)", "setting": "[1]", "value": "3 (trace −5% of disease on untreated plants)"},
      {"measurement": "disease control grading, P[…] (RICE)", "setting": "[1]", "value": "3 (trace −5% of disease on untreated plants)"},
      {"measurement": "disease control grading, PH[…] (TOMATO)", "setting": "[1]", "value": 4},
      {"measurement": "disease control grading, PUCCINIA RECONDITA (WHEAT)", "setting": "[1]", "value": 4},
      {"measurement": "disease control grading, VENTURIA INAEQUALIS (APPLE)", "setting": "[1]", "value": 4},
      {"measurement": "disease control grading, […] (VINE)", "setting": "[1]", "value": 4},
      {"measurement": "disease control grading, ERYSIPHE GRAMINIS (BARLEY)", "setting": "[2]", "value": 4}
    ]},
    {"smiles": "CO/C=C(/C(=O)OC)c1ccccc1COc1cccc(Br)c1", "note": "[166 (Table I)]", "values": [
      {"measurement": "disease control grading, CERCOSPORA ARACHIDICOLA (PEANUT)", "setting": "[1]", "value": 4},
      {"measurement": "disease control grading, P[…] (RICE)", "setting": "[1]", "value": 4},
      {"measurement": "disease control grading, PH[…] (TOMATO)", "setting": "[1]", "value": 4},
      {"measurement": "disease control grading, PUCCINIA RECONDITA (WHEAT)", "setting": "[1]", "value": 4},
      {"measurement": "disease control grading, VENTURIA INAEQUALIS (APPLE)", "setting": "[1]", "value": 4},
      {"measurement": "disease control grading, […] (VINE)", "setting": "[1]", "value": 4},
      {"measurement": "disease control grading, ERYSIPHE GRAMINIS (BARLEY)", "setting": "[2]", "value": 4}
    ]},
    {"smiles": "CO/C=C(/C(=O)OC)c1ccccc1COc1cccc(C(C)(C)C)c1", "note": "[29 (Table I)]", "values": [
      {"measurement": "disease control grading, CERCOSPORA ARACHIDICOLA (PEANUT)", "setting": "[1]", "value": 4},
      {"measurement": "disease control grading, P[…] (RICE)", "setting": "[1]", "value": 4},
      {"measurement": "disease control grading, PH[…] (TOMATO)", "setting": "[1]", "value": 4},
      {"measurement": "disease control grading, PUCCINIA RECONDITA (WHEAT)", "setting": "[1]", "value": 4},
      {"measurement": "disease control grading, VENTURIA INAEQUALIS (APPLE)", "setting": "[1]", "value": 4},
      {"measurement": "disease control grading, […] (VINE)", "setting": "[1]", "value": 4},
      {"measurement": "disease control grading, ERYSIPHE GRAMINIS (BARLEY)", "setting": "[2]", "value": "2 (6-25% of disease on untreated plants)"}
    ]},
    {"smiles": "CO/C=C(/C(=O)OC)c1ccccc1COc1ccc2ccccc2n1", "note": "[149 (Table I)]", "values": [
      {"measurement": "disease control grading, P[…] (RICE)", "setting": "[1]", "value": 4},
      {"measurement": "disease control grading, PH[…] (TOMATO)", "setting": "[1]", "value": 4},
      {"measurement": "disease control grading, PUCCINIA RECONDITA (WHEAT)", "setting": "[1]", "value": 4},
      {"measurement": "disease control grading, VENTURIA INAEQUALIS (APPLE)", "setting": "[1]", "value": 4},
      {"measurement": "disease control grading, […] (VINE)", "setting": "[1]", "value": 4},
      {"measurement": "disease control grading, ERYSIPHE GRAMINIS (BARLEY)", "setting": "[2]", "value": 4}
    ]},
    {"smiles": "CO/C=C(/C(=O)OC)c1ccccc1COc1ccccc1Br", "note": "[24 (Table I)]", "values": [
      {"measurement": "disease control grading, CERCOSPORA ARACHIDICOLA (PEANUT)", "setting": "[1]", "value": 4},
      {"measurement": "disease control grading, P[…] (RICE)", "setting": "[1]", "value": 4},
      {"measurement": "disease control grading, PH[…] (TOMATO)", "setting": "[1]", "value": 4},
      {"measurement": "disease control grading, PUCCINIA RECONDITA (WHEAT)", "setting": "[1]", "value": 4},
      {"measurement": "disease control grading, VENTURIA INAEQUALIS (APPLE)", "setting": "[1]", "value": 4},
      {"measurement": "disease control grading, […] (VINE)", "setting": "[1]", "value": 4},
      {"measurement": "disease control grading, ERYSIPHE GRAMINIS (BARLEY)", "setting": "[2]", "value": 4}
    ]},
    {"smiles": "CO/C=C(/C(=O)OC)c1ccccc1COc1cccc(Oc2ccccc2)n1", "note": "[185 (Table I)]", "values": [
      {"measurement": "disease control grading, CERCOSPORA ARACHIDICOLA (PEANUT)", "setting": "[1]", "value": 4},
      {"measurement": "disease control grading, P[…] (RICE)", "setting": "[1]", "value": 4},
      {"measurement": "disease control grading, PH[…] (TOMATO)", "setting": "[1]", "value": 4},
      {"measurement": "disease control grading, PUCCINIA RECONDITA (WHEAT)", "setting": "[1]", "value": 4},
      {"measurement": "disease control grading, VENTURIA INAEQUALIS (APPLE)", "setting": "[1]", "value": "2 (6-25% of disease on untreated plants)"},
      {"measurement": "disease control grading, […] (VINE)", "setting": "[1]", "value": 4},
      {"measurement": "disease control grading, ERYSIPHE GRAMINIS (BARLEY)", "setting": "[2]", "value": 4}
    ]},
    {"smiles": "CO/C=C(/C(=O)OC)c1ccccc1COc1cccc(Oc2ccccc2Cl)c1", "note": "[182 (Table I)]", "values": [
      {"measurement": "disease control grading, CERCOSPORA ARACHIDICOLA (PEANUT)", "setting": "[1]", "value": 4},
      {"measurement": "disease control grading, P[…] (RICE)", "setting": "[1]", "value": 4},
      {"measurement": "disease control grading, PH[…] (TOMATO)", "setting": "[1]", "value": 4},
      {"measurement": "disease control grading, PUCCINIA RECONDITA (WHEAT)", "setting": "[1]", "value": 4},
      {"measurement": "disease control grading, VENTURIA INAEQUALIS (APPLE)", "setting": "[1]", "value": "3 (trace −5% of disease on untreated plants)"},
      {"measurement": "disease control grading, […] (VINE)", "setting": "[1]", "value": 4},
      {"measurement": "disease control grading, ERYSIPHE GRAMINIS (BARLEY)", "setting": "[2]", "value": 4}
    ]},
    {"smiles": "CO/C=C(/C(=O)OC)c1ccccc1COc1cccc(C=O)c1", "note": "[175 (Table I)]", "values": [
      {"measurement": "disease control grading, CERCOSPORA ARACHIDICOLA (PEANUT)", "setting": "[1]", "value": "1 (26-59% of disease on untreated plants)"},
      {"measurement": "disease control grading, P[…] (RICE)", "setting": "[1]", "value": "0 (60-100% of disease on untreated plants)"},
      {"measurement": "disease control grading, PH[…] (TOMATO)", "setting": "[1]", "value": 4},
      {"measurement": "disease control grading, PUCCINIA RECONDITA (WHEAT)", "setting": "[1]", "value": "3 (trace −5% of disease on untreated plants)"},
      {"measurement": "disease control grading, VENTURIA INAEQUALIS (APPLE)", "setting": "[1]", "value": 4},
      {"measurement": "disease control grading, […] (VINE)", "setting": "[1]", "value": 4},
      {"measurement": "disease control grading, ERYSIPHE GRAMINIS (BARLEY)", "setting": "[2]", "value": "1 (26-59% of disease on untreated plants)"}
    ]},
    {"smiles": "CO/C=C(/C(=O)OC)c1ccccc1COc1cccc(/C=N/c2ccccc2)c1", "note": "[179 (Table I)]", "values": [
      {"measurement": "disease control grading, CERCOSPORA ARACHIDICOLA (PEANUT)", "setting": "[1]", "value": "0 (60-100% of disease on untreated plants)"},
      {"measurement": "disease control grading, P[…] (RICE)", "setting": "[1]", "value": "2 (6-25% of disease on untreated plants)"},
      {"measurement": "disease control grading, PH[…] (TOMATO)", "setting": "[1]", "value": 4},
      {"measurement": "disease control grading, PUCCINIA RECONDITA (WHEAT)", "setting": "[1]", "value": "3 (trace −5% of disease on untreated plants)"},
      {"measurement": "disease control grading, VENTURIA INAEQUALIS (APPLE)", "setting": "[1]", "value": "0 (60-100% of disease on untreated plants)"},
      {"measurement": "disease control grading, […] (VINE)", "setting": "[1]", "value": 4},
      {"measurement": "disease control grading, ERYSIPHE GRAMINIS (BARLEY)", "setting": "[2]", "value": "0 (60-100% of disease on untreated plants)"}
    ]},
    {"smiles": "CO/C=C(/C(=O)OC)c1ccccc1COc1cc(Cl)ccc1Cl", "note": "[158 (Table I)]", "values": [
      {"measurement": "disease control grading, CERCOSPORA ARACHIDICOLA (PEANUT)", "setting": "[1]", "value": 4},
      {"measurement": "disease control grading, P[…] (RICE)", "setting": "[1]", "value": 4},
      {"measurement": "disease control grading, PH[…] (TOMATO)", "setting": "[1]", "value": "3 (trace −5% of disease on untreated plants)"},
      {"measurement": "disease control grading, PUCCINIA RECONDITA (WHEAT)", "setting": "[1]", "value": 4},
      {"measurement": "disease control grading, VENTURIA INAEQUALIS (APPLE)", "setting": "[1]", "value": 4},
      {"measurement": "disease control grading, […] (VINE)", "setting": "[1]", "value": 4},
      {"measurement": "disease control grading, ERYSIPHE GRAMINIS (BARLEY)", "setting": "[2]", "value": 4}
    ]}
  ]
}
